Reference: patent US12102672B2, “Immunogenic sequences from a phage tail length tape measure protein, bacteria expressing the same and their use in treating a cancer” (INSTITUT GUSTAVE ROUSSY, priority 2017, dated 2024)
“Also recorded” adds a separate entry of the source.

Tests used:
MCA-205 sarcoma [1] = experiment: MCA-205 sarcoma growth in FMT-treated mice, CTX plus oral gavage with E. hirae strains; type: in vivo; settings: for Anti-tumor effect: summary of the characteristics of the strains, with CTX, MCA205 sarcoma; for CTX-mediated antitumor effects (MCA-205 tumor growth): FMT from BC patient 2 with no overt dysbiosis, oral gavage; for boost of CTX tumoricidal activity (MCA-205 tumor growth): dysbiotic FMT from BC patient, 3 cycles CTX 100 mg/kg, oral gavage 1.10^9 bacteria
Description: FIG. 1. Experimental setting. (A) Mice are treated with broad spectrum antibiotics (streptomycin, colistin, ampicillin and vancomycine) for 3 days before performing Fecal Microbiota Transplantation (FMT). 14 days post-FMT, MCA-205 sarcoma cell lines are inoculated in the right flank of mice (8.10^5 cells per mice). […] (B) Non FMT-treated SPF mice are used as control.
FIG. 2. Dysbiosis by FMT BC patient 1: Effectiveness of E. hirae 13144 to restore CTX-mediated antitumor effects. […] (C) Tumor growth curves of MCA-205 sarcoma in FMT-treated mice after oral gavage with strain E. hirae 13144 or NaCl as control. 2 independent experiments are depicted. (D) Overall survival of FMT-treated, MCA-205 sarcoma bearing mice treated with CTX or NaCl after oral gavage with strain E. hirae 13144. A typical survival curve is depicted for six mice per group. (E) Concatenated data of tumor sizes at day 21 post-CTX from 2 independent experiments are shown.
FIG. 3. […] (C) Tumor growth curves of MCA-205 sarcoma in FMT-treated mice after oral gavage with strain E. hirae 13144 or NaCl as control. 2 independent experiments are depicted. (D) Concatenated data of tumor sizes at day 21 post-CTX from 2 independent experiments are shown.
FIG. 4. […] Tumor growth curves of MCA-205 sarcoma in FMT-treated mice after oral gavage with strain E. hirae 13144 (A), IGR1 (B) or NaCl as control. A typical curve is depicted for six mice per group. (C) Concatenated data of tumor sizes at day 17 post-CTX from 1-2 independent experiments are shown. (D). Comparaison of various strains of E. hirae for their capacity to control tumor growth. […] EH10815 fails to work and that may be related to a mutation residing in TMP2 (see below FIG. 13B).
FIG. 5. […] (A) Tumor surface of MCA-205 sarcoma in FMT-treated mice after oral gavage with strain E. hirae 13144, IGR4, IGR7, Actinomycetes spp (Ao) and injected with 3 cycles of CTX (C) vs NaCl (N). Each dot is one mouse/tumor. (B) Tumor growth curves of MCA-205 sarcoma in SPF mice of the best group, means+SEM of tumor sizes at each time point and tumor sizes at sacrifice (C: CTX). Each dot is one mouse/tumor. Anova statistics indicating significant differences between CTX and the triple combination. (C) Tumor surface of MCA-205 sarcoma in FMT-treated mice after oral gavage with strains EH13144, IGR1, IGR11, Barnesiella or Akkermansia and injected with 3 cycles of CTX. Bacterial strains are used alive (V) or pasteurized (P). For pasteurization, bacteria are incubated 30 min at 70° C. and frozen at −80° C. at least 6 hours.
FIG. 6. […] Tumor growth curves of MCA-205 sarcoma in FMT-treated mice after oral gavage with strain E. hirae 13144 alive (A), pasteurized (B) or NaCl as control. A typical curve is depicted for six mice per group. (C) Concatenated data of tumor sizes at day 17 post-CTX from 3 independent experiments are shown.

MCA-205 sarcoma [2] = experiment: MCA205 sarcoma growth in antibiotic-treated SPF C57BL/6 mice, CTX plus oral gavage with bacteria; type: in vivo; settings: ATB 3 days, CTX 100 mg/kg x3, weekly oral gavages, FIG. 27B
Description: A and C. Experimental setting. […] D-E. Ex vivo recall assays. […] Each dot represents one mouse.
A-B. Prophylactic vaccinations. […] C-D. Therapeutic settings.
Mice were treated during 3 days with an antibiotic solution (ATB) containing ampicillin (1 mg/ml), streptomycin (5 mg/ml), colistin (1 mg/ml) (Sigma-Aldrich) and vancomycin (0.25 mg/ml) added in the sterile drinking water of mice. Antibiotic activity was confirmed by cultivating fecal pellets resuspended in BHI+15% glycerol at 0.1 g/ml on COS (BD Columbia Agar with 5% Sheep Blood) plates for 48 h at 37° C. in aerobic and anaerobic conditions. In the context of bacterial transplantation experiments, mice received 3 days of ATB before undergoing bacterial transplantation the next day by oral gavage using animal feeding needles.
Syngeneic C57BL/6 mice were implanted with 0.8×10^6 MCA-205 WT sarcoma cells subcutaneously and treated intraperitoneally (i.p.) when tumors reached 20 to 35 mm^2 in size with CTX (100 mg/kg). Depending on the experimental setting, mice were injected once or 3 times at 1-week interval. Tumor size was routinely monitored every 3 days by means of a caliper.
Enterococcus hirae 13144 were originally isolated from spleens of SPF mice treated with CTX in our laboratory.

CD8+ and CD4+ T cells = experiment: Flow cytometry of T cells in mLN, spleen and tumor after oral gavage with E. hirae and CTX; type: in vivo, mice; settings: for accumulation of CD8+ T cells in mLN and spleen: mLN after 1 week, spleen after 2 weeks
Description: FIG. 7. […] (A) Experimental setting. […] One day post-CTX, a second oral gavage with E. hirae is performed. 72 hours post-CTX, CD4+ and CD8+ T cells are isolated from mesenteric lymph node (mLN). Percentage of CD8+(B) and CD4+(C) T cells in mLN after oral gavage with E. hirae 708 or 13144 and CTX treatment. (D) Experimental setting. […] 5 days after the first oral gavage, mice are treated with CTX. One week post-CTX, CD8+ T cells are isolated from spleen. Percentage of CD8+ T cells (E) and CCR9+CXCR3+CD8 T cells (F) in spleen after oral gavage with E. hirae 708 or 13144 and CTX treatment.

colon mucosae = experiment: Colon inflammatory infiltrates (HES staining) after E. hirae gavage and CTX; type: in vivo, mice; settings: for inflammatory infiltrates of colon mucosae: mice without tumor, oral gavages + CTX, versus without commensals
Description: FIG. 11. Effects of EH on gut inflammation and role of CD8+ T cells in this inflammation: EH-specific CTL amplified in the mLN may return into the lamina propria. (A) Experimental setting. […] Then, we performed oral gavage with E. hirae (708 or 13144) and anti-CD8 injection (200 μg per mice) every three days for a total of 4 gavages/injections. 5 days after the first oral gavage, mice are treated with CTX. One week post-CTX, colon is removed for Hematoxylin Eosin Staining (HES). (B) Extent of inflammatory infiltrates in colon of mice colonized with E. hirae and treated with anti-CD8 ablating Abs and CTX.
FIG. 18. […] (A) Experimental setting. […] Then we performed oral gavage with E. hirae (708 or 13144) every three days for a total of 4 gavages. 5 days after the first oral gavage, mice were treated with CTX. One week post-CTX, colons are removed to be embedded in PPFE for Hematoxylin, Eosin and Safran staining (HES). (B) Extent of inflammatory infiltrates in colons of mice bearing MCA205 tumors or not and colonized with E. hirae and treated with CTX. Student t′-test statistical analyses: ** p<0.01.

MCA205 sarcoma = settings: cited from earlier work; for anti-tumor immune response: FIG. 1D of Daillère et al., 2016

Row | Substance | Anti-tumor effect (MCA-205 sarcoma [1]) | restoration of antibiotic-perturbed anticancer effects of CTX (MCA205 growth) (MCA-205 sarcoma [2]) | accumulation of CD8+ T cells in mLN and spleen (CD8+ and CD4+ T cells) | inflammatory infiltrates of colon mucosae (colon mucosae) | anti-tumor immune response (MCA205 sarcoma) | CTX-mediated antitumor effects (MCA-205 tumor growth) (MCA-205 sarcoma [1]; listed as E. hirae 13144) | CTX-mediated antitumor effects (MCA-205 tumor growth) (MCA-205 sarcoma [1]; listed as EH13144) | boost of CTX tumoricidal activity (MCA-205 tumor growth) (MCA-205 sarcoma [1]; listed as E. hirae 13144) | boost of CTX tumoricidal activity (MCA-205 tumor growth) (MCA-205 sarcoma [1]; listed as EH13144) | CD4+ T cell pool in the mLN (CD8+ and CD4+ T cells; 72 hours post-CTX) | accumulation of CD8+CCR9+CXCR3+ T cells in spleen and tumor beds (CD8+ and CD4+ T cells; listed as EH13144) | accumulation of CD8+ T cells in mLN and spleen (CD8+ and CD4+ T cells; listed as E. hirae 13144) | accumulation of CD8+ T cells in mLN and spleen (CD8+ and CD4+ T cells; listed as EH13144) | colon inflammatory lesions in tumor bearers (colon mucosae; mice bearing MCA205 sarcoma versus naive, listed as E. hirae 13144) | restoration of CTX-mediated antitumor effects (MCA205 sarcoma; 14 day-ATBs, oral gavage)
1 | Enterococcus hirae 708 [Peptide 708, reference compound] | No | reduced anticancer effect | capable of inducing the accumulation of CD8+ T cells | more infiltrated | fails to do so | – | – | – | – | – | – | – | – | – | –
2 | Enterococcus hirae strain 13144 [Peptide 13144] | Yes | efficient | – | more infiltrated | induces an efficient anti-tumor immune response | ameliorates the CTX-mediated antitumor effects | significant | only when used alive | very effective at restoring the efficacy | amplified | induce accumulation; also recorded: Sustained accumulation | Increased accumulation | capable of inducing the accumulation of CD8+ T cells | markedly reduced; also recorded: prevents the gut inflammatory lesions | selectively restored the CTX-mediated antitumor effects
